The results in this text go back to patent US9540361B2, “N-substituted azetidine derivatives” (Merck Sharp & Dohme B.V., priority 2010, dated 2017).

The target of experiment [1] is T1, human estrogen receptor α (hERα) (Homo sapiens, UniProt P03372).
T1 sequence (P03372 1-595): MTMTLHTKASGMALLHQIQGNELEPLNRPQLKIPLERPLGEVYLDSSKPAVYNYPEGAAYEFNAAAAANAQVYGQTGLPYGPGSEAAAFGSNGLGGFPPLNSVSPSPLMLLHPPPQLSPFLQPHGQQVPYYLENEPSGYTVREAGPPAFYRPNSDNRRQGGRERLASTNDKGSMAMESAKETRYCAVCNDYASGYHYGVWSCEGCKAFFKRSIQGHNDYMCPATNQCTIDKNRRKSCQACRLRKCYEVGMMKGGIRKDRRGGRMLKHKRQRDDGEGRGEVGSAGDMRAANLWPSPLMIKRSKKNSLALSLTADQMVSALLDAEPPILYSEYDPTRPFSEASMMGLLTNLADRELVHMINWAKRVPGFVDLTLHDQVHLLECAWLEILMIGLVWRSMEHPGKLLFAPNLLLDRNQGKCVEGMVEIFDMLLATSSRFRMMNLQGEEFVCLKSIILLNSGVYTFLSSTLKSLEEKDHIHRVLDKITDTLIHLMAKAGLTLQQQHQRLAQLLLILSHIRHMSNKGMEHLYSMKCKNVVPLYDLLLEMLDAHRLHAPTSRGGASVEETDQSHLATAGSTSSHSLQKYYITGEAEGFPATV
Kind of experiment: antagonistic activity in CHO cells co-transfected with hERα, rat oxytocin promoter and luciferase reporter gene. Type of experiment: cell-based. Conditions: antagonism of 17β-estradiol-induced transactivation, CHO-hERα-RO-LUC; read-out: ERα pIC50 (converted). On the procedure: The antagonistic activity of compounds on the estrogen receptors was determined in an in vitro bioassay with recombinant Chinese Hamster Ovary (CHO) cells stably co-transfected with the human estrogen receptor α (hERα), the rat oxytocin promoter (RO) and the luciferase reporter gene (LUC). […] The antagonistic efficacy, i.e. the amount of maximal inhibition of the 17β-estradiol activated receptor by a compound, is expressed as fraction relative to the maximal inhibition as induced by the standard anti-estrogen ICI 164,384 (efficacy test compound=(maximal inhibition test compound/maximal inhibition ICI 164,384)). A more detailed description of the methodology can be found in De Gooyer et al., Steroids, 68 (2003) 21-30.

A further experiment deals with T2, estrogen receptor alpha (Homo sapiens, UniProt P03372).
T2 construct: endogenous in cells; host or cells: T47D human breast cancer cells (ATCC)
T2 sequence (P03372 1-595): T1 sequence (P03372 1-595)
The experiment is described as follows: ERα downregulation assay in T47D breast cancer cells (ERα ELISA). It is filed as cell-based. Conditions: downregulation of ERα relative to fulvestrant (100%), 1E-5 M, 24 hours, negative = upregulation. The text has this: More specifically, this in vitro bioassay is used to determine the efficacy (fraction of maximal response) of the compound by comparing the data for this compound with those of the reference compound ICI 182,780 (fulvestrant) in the same test (downregulation of fulvestrant is 100% by definition).
A more detailed description of the method used is as follows.
Cell culture. The human epithelial breast cancer cell line T47D (origin: ATCC) was routinely maintained in a 1:1 mixture of Ham's F12 medium and Dulbecco's Modified Eagle Medium (Gibco) enriched with 5% fetal calf serum (Hyclone), 10 mM HEPES pH 7.5 and 100 μg/ml penicillin-streptomycin solution. Cells were grown in 80 cm2 culture flasks (Nunc, Roskilde, Denmark) and kept in an atmosphere of 5% CO2-95% air at 37 degrees Celsius. Cells were subcultured when they reached about 80-90% confluence, resulting in one passage a week. Subculturing includes detaching the cells using Cell Dissociation Buffer [Sigma] and subsequent inoculation at 1:5 or 1:10 in a new Roux flask (175 cc) and\or plating out in Nunclon™ Surface 96 wells microplates. The culture medium needs to be refreshed on day three or four of the incubation, if applicable.
Determination of ERα protein levels: T47D cells in the microplates are incubated with 1E-5 M test compound for 24 hours. The supernatant in all wells is carefully aspirated. Cells are lysed on the microplate and cell lysates are probed for ERα content using an ERα ELISA assay kit (Active Motif).

For the compound `CCCN1CC(Oc2ccc(C(=O)c3c(-c4ccccc4Cl)noc3-c3cccc(O)c3)cc2)C1.Cl` [compound 7ap, (3-(2-chlorophenyl)-5-(3-hydroxyphenyl)isoxazol-4-yl)(4-(1-propylazetidin-3-yloxy)phenyl)methanone hydrochloride], the IC50 in experiment [1] is 2 nM. In addition, the “DR (%)” value on estrogen receptor alpha was determined as 90%.
Consider `O=C(O)C(F)(F)F.O=C(c1ccc(OC2CN(C3CC3)C2)cc1)c1c(-c2ccc(O)cc2)sc2cc(O)ccc12` [compound 7i, (4-(1-cyclopropylazetidin-3-yloxy)phenyl)(6-hydroxy-2-(4-hydroxyphenyl)-benzo[b]thiophen-3-yl)methanone 2,2,2-trifluoroacetate], for which the IC50 in experiment [1] is 2.51 nM. For the same compound, the “DR (%)” value at estrogen receptor alpha was 66%.
As for `Cl.O=C(c1ccc(OC2CN(CC3CCC3)C2)cc1)c1c(-c2ccc(O)cc2)sc2cc(O)ccc12` [compound 7n, (4-(1-(cyclobutylmethyl)azetidin-3-yloxy)phenyl)(6-hydroxy-2-(4-hydroxyphenyl)benzo[b]thiophen-3-yl)methanone hydrochloride], the IC50 in experiment [1] is 1.26 nM. In addition, the “DR (%)” value at estrogen receptor alpha is recorded as 77%.
On to `CCCN1CC(Oc2ccc(C(=O)c3c(-c4ccccc4C)noc3-c3ccc(O)cc3)cc2)C1.Cl` [compound 7aj, (5-(4-hydroxyphenyl)-3-o-tolylisoxazol-4-yl)(4-(1-propylazetidin-3-yloxy)-phenyl)methanone hydrochloride], for which, in experiment [1], the IC50 was 3.16 nM. On estrogen receptor alpha, the “DR (%)” value is given as 100%.
As for `CCCN1CC(Oc2ccc(C(=O)c3c(-c4ccccc4Cl)noc3-c3cccc4[nH]ncc34)cc2)C1.O=C(O)C(F)(F)F` [compound 7as, (3-(2-chlorophenyl)-5-(1H-indazol-4-yl)isoxazol-4-yl)(4-(1-propylazetidin-3-yl-oxy)phenyl)methanone 2,2,2-trifluoroacetate], in experiment [1], the IC50 was 39.8 nM. The “DR (%)” value on estrogen receptor alpha is listed as 55%.
For `CCCN1CC(Oc2ccc(-c3c(-c4c(C)noc4C)noc3-c3ccc(O)cc3)cc2)C1.Cl` [compound 7af, 4-(3′,5′-dimethyl-4-(4-(1-propylazetidin-3-yloxy)phenyl)-3,4′-biisoxazol-5-yl)-phenol hydrochloride], in that order: 3.16 nM and 92%.
As for `CCCN1CC(Oc2ccc(C(=C(Cl)c3ccccc3)c3ccccc3)cc2)C1` (mixture of isomers) [compound 6x, (E/Z)-3-(4-(2-chloro-1,2-diphenylvinyl)phenoxy)-1-propylazetidine 2,2,2-trifluoroacetate], the IC50 in experiment [1] is 7.94 nM. Further, at estrogen receptor alpha, the “DR (%)” value was 63%.
For `CN1CC(Oc2ccc(C(=O)c3c(-c4ccc(O)cc4)sc4cc(O)ccc34)cc2)C1.Cl` [compound 7d, (6-hydroxy-2-(4-hydroxyphenyl)benzo[b]thiophen-3-yl)(4-(1-methylazetidin-3-yloxy)phenyl)methanone hydrochloride], the IC50 in experiment [1] was 2 nM. Moreover, the “DR (%)” value at estrogen receptor alpha is 48%.
In the same order, the values of `CCCN1CC(Oc2ccc(C(=O)c3c(-c4ccccc4Cl)noc3-c3ccc(O)cc3)cc2F)C1.Cl` [compound 7at, (3-(2-chlorophenyl)-5-(4-hydroxyphenyl)isoxazol-4-yl)(3-fluoro-4-(1-propylazetidin-3-yloxy)phenyl)methanone hydrochloride] are 1.58 nM and 101%.
In the case of `CCCN1CC(Oc2ccc([C@H]3c4ccc(O)cc4OC(C)(C)[C@@H]3c3ccccc3)cc2)C1.O=C(O)C(F)(F)F` [compound 6p, (3S,4S)-2,2-dimethyl-3-phenyl-4-(4-(1-propylazetidin-3-yloxy)phenyl)chroman-7-ol 2,2,2-trifluoroacetate], the IC50 in experiment [1] was 3.98 nM. Moreover, the “DR (%)” value on estrogen receptor alpha is given as 58%.
For `CCCN1CC(Oc2ccc([C@H]3c4ccc(OC)cc4OC(C)(C)[C@@H]3c3ccccc3)cc2)C1.O=C(O)C(F)(F)F` [compound 6o, 3-(4-((3S,4S)-7-methoxy-2,2-dimethyl-3-phenylchroman-4-yl)phenoxy)-1-propylazetidine 2,2,2-trifluoroacetate], in that order: 25.1 nM and 75%.
With `CCCN1CC(Oc2ccc(C(=O)c3c(-c4ccccc4Cl)noc3-c3ccc(N)cc3)cc2)C1.O=C(O)C(F)(F)F` [compound 7ar, (5-(4-aminophenyl)-3-(2-chlorophenyl)isoxazol-4-yl)(4-(1-propylazetidin-3-yl-oxy)phenyl)methanone 2,2,2-trifluoroacetate], the IC50 in experiment [1] is 20 nM. Besides, the “DR (%)” value on estrogen receptor alpha amounted to 82%.
For `CCCN1CC(Oc2ccc(C(=O)c3c(-c4cccs4)sc4cc(O)ccc34)cc2)C1.Cl` [compound 7f, (6-hydroxy-2-(thiophen-2-yl)benzo[b]thiophen-3-yl)(4-(1-propylazetidin-3-yl-oxy)phenyl)methanone hydrochloride], the IC50 in experiment [1] is 2.51 nM. Moreover, the “DR (%)” value on estrogen receptor alpha stood at 88%.
On to `C=CCN1CC(Oc2ccc(-c3c(-c4ccc(O)cc4)sc4cc(O)ccc34)cc2)C1.O=C(O)C(F)(F)F` [compound 7b, 3-(4-(1-allylazetidin-3-yloxy)phenyl)-2-(4-hydroxyphenyl)benzo[b]thiophen-6-ol 2,2,2-trifluoroacetate], for which, in experiment [1], the IC50 was 0.631 nM. For the same compound, the “DR (%)” value at estrogen receptor alpha is 68%.
Consider `Cl.O=C(c1ccc(OC2CN(CCC(F)(F)F)C2)cc1)c1c(-c2ccc(O)cc2)sc2cc(O)ccc12` [compound 7p, (6-hydroxy-2-(4-hydroxyphenyl)benzo[b]thiophen-3-yl)(4-(1-(3,3,3-trifluoropropyl)azetidin-3-yloxy)phenyl)methanone hydrochloride], for which the IC50 in experiment [1] was 5.01 nM. Moreover, the “DR (%)” value on estrogen receptor alpha came out at 35%.
